According to patent publication US20200055821A1, “METHOD FOR MANUFACTURING DIASTEREOMER OF CITRIC ACID DERIVATIVE” (OTSUKA PHARMACEUTICAL FACTORY, INC., priority 2017, published 2020):

Columns and labels:
[1] = hygroscopicity and handling of the solid; type: physicochemical; details: when concentrated and solidified / powder
Description: On the other hand, the crystal of the compound A was a non-hygroscopic powder, which was easily handled.

[2] = stability of compound A in aqueous solution by pH (hydrolysis seen by HPLC); type: physicochemical
Description: The difficult point when the crystal of the compound A is obtained by the present method is in removing citric acid from the aqueous solution containing the compound A and citric acid in an acidic condition. Since the compound A is unstable in a neutral to alkaline (pH of 5 or higher) aqueous solution, in order to suppress decomposition of the compound A, maintenance of an acidic condition is important. Therefore, the aqueous solution containing the compound A and citric acid and having a pH of 2.0 or lower to be used in the step (a) may be an aqueous solution whose pH is preferably 0.6 to 1.8 and most preferably 1.0 to 1.6. […]
The purified precipitate obtained at a pH of 3.6 by the above operation and the purified precipitate obtained at a pH of 6.0 thereby were each evaluated by qualitative analysis using HPLC (FIG. 5, FIG. 6). The each precipitate (about 10 mg) was dissolved in purified water (about 1 mL), diluted 40-fold with a 10 mM perchloric acid solution being a mobile phase of the qualitative analysis using HPLC, and analyzed (by being diluted with the 10 mM perchloric acid solution, which was an acidic solvent, the Ca salts of the compound A were converted to the compound A, thus the detection was made as the compound A.). […]

[3] = tested on: liver disorder; details: known active substance; cited from earlier work
[4] = solubility in isopropanol-water mixed solvent; type: physicochemical; details: mixed solvent of isopropanol and water, ratio of isopropanol 40% or higher
Procedure: A highly purified crystalline powder of the compound A was obtained by repeating three times the same operation as in the recrystallization described in the paragraph of Example 3. 100 mL of purified water (Japanese Pharmacopoeia purified water) was added to 10 g of the crystalline powder, which was then dissolved by heating the resultant in a water bath at 50° C. The resultant solution was filtered by using a membrane filter (Merck Millipore) of 0.22 μm in pore size, and the resultant filtrate was collected. The filtrate was concentrated by using an evaporator on a water bath at 40° C. to thereby collect the resultant as an about 50 ml of a solution. This solution was concentrated and […] to thereby become a solution in a supersaturated state. The solution as it was in the heated state (40° C.) was dispensed in test tubes with a lid so as to have solvent ratios indicated in the following Table (Table 4) to thereby produce solutions having mixed solvents. Specifically, by adding 100 μL of organic solvents of methanol, ethanol, acetone and the like to 400 μL of the supersaturated solution, there was made a solution having a water ratio in the mixed solvent of 80%. […]

hygroscopicity [1] | hydrolysis of the imide structure ([2]; alkali added for the pH to be 6.0, 80% ethanol precipitation, HPLC) | stability in aqueous solution ([2]; neutral to alkaline (pH of 5 or higher) aqueous solution) | solubility [4] | Compound | inhibitory effect against liver disorder [3]
non-hygroscopic |  |  |  | O=C(O)CC(C(=O)O)N1C(=O)C[C@@](O)(CC(=O)O)C1=O (stereo partly drawn) [crystal of the compound A] | 
had hygroscopicity |  |  |  | O=C(O)C[C@@H](C(=O)O)N1C(=O)C[C@@](O)(CC(=O)O)C1=O [noncrystal of the compound A] | 
 | hydrolysis of the compound A progressed | unstable | decreased | O=C(O)CC(C(=O)O)N1C(=O)CC(O)(CC(=O)O)C1=O (stereo not drawn) [compound A] | inhibitory effect against liver disorder
